According to ChEMBL document CHEMBL1201862, “PubChem BioAssay data set” (2004):
The source made the active and inactive calls.

Legend:
[1] = molecular target: T1, ATP-dependent translocase ABCB1 (Homo sapiens, UniProt P08183); experiment: ABCG2 efflux pump inhibitor potency, dose response, Ig-MXP3 cells, JC-1, flow cytometry, set 2 (AID 504566); assay type: functional; settings: read-out: EC50_MICROM_;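 note: flow cytometry median green fluorescence of retained JC-1 dye; potency of efflux pump inhibition measured as rising substrate retention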
[2] = molecular target: T1, ATP-dependent translocase ABCB1; experiment: ABCB1 efflux inhibitor potency, dose response, Jurkat-DNR cells, JC-1, flow cytometry, set 2 (AID 504569); assay type: functional; settings: read-out: EC50_MICROM_;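 note: potency of pump inhibitors that raise cellular JC-1 green fluorescence up to the nicardipine level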
[3] = molecular target: ADP-ribosylation factor GTPase-activating protein 1 (Rattus norvegicus, UniProt Q62848); experiment: Fluorescence polarization-based biochemical high throughput dose response screening assay to identify inhibitors of ADP-ribosylation factor GTPase activating protein 1 (ARFGAP1).; assay type: functional
[4] = molecular target: T2, Sentrin-specific protease 8 (Homo sapiens, UniProt Q96LD8); assay type: functional
T2 sequence (Q96LD8 whole entry): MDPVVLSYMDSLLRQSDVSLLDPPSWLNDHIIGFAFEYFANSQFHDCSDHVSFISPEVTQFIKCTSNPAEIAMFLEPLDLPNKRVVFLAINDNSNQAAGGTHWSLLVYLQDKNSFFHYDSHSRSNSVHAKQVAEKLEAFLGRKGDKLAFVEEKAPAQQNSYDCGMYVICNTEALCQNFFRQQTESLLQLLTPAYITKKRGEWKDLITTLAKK

[5] = molecular target: T2, Sentrin-specific protease 8; assay type: functional; remark: listed apart in the source
[6] = molecular target: T3, Mitochondrial peptide methionine sulfoxide reductase (Bos taurus, UniProt P54149); assay type: functional;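 for IC50: absorbance read-out, biochemical high-throughput dose-response screen for MsrA inhibitors, confirmatory; recombinant bovine MsrA coupled to E. coli TrxB with NADPH and selenocystamine; potency is for inhibitors of MsrA activity on DMSO substrate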
[7] = molecular target: T3, Mitochondrial peptide methionine sulfoxide reductase; experiment: Absorbance-based biochemical high throughput dose response assay for activators of Methionine sulfoxide reductase A (MsrA).; assay type: functional
[8] = molecular target: Histone-lysine N-methyltransferase NSD2 (Homo sapiens, UniProt O96028); assay type: biochemical
[9] = molecular target: Long-chain-fatty-acid--AMP ligase FadD28 (Mycobacterium tuberculosis, UniProt P9WQ59); experiment: Fluorescence polarization aasay to screen for inhibitors that compete for the binding of FadD28 to a bisubstrate Measured in Biochemical System Using Plate Reader - 2147-01_Inhibitor_Dose_CherryPick_Activity.; assay type: functional, Mycobacterium tuberculosis H37Rv
[10] = molecular target: Serine/threonine-protein phosphatase (Candida dubliniensis (strain CD36 / CBS 7987 / NCPF 3949 / NRRLY-17841) (Yeast), UniProt B9W6M3); experiment: calcineurin pathway inhibitors in yeast reporter, dose response, S. cerevisiae, CDRE-lacZ, luminescence, secondary (AID 2388); assay type: functional, cell-based;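 note: yeast reporter cells carrying a calcineurin-responsive lacZ construct stimulated with calcium chloride; luminescent beta-galactosidase reporter signal in whole cells rather than isolated phosphatase activity; potency for inhibition where a drop in reporter signal means calcineurin blockade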
[11] = Luminescence Cell-Based Dose Confirmation HTS to Identify Activators of 5'UTR Stem-Loop Driven Alpha-Synuclein mRNA Translation in H4 Neuroglioblastoma Cells. [Related pubchem assays: 1829 (Project Summary), 1814 (Primary HTS)]; assay type: functional
[12] = NIH-3T3 fibroblast cytotoxicity, dose response, cytotoxicity control, cell-based, fluorescence, Alamar Blue, secondary assay (AID 2327); assay type: functional;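 note: NIH-3T3 mouse fibroblasts cultured with fluconazole at 8 µg/mL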
[13] = Luminescence Cell-Based Dose Response to Identify Activators of 5'UTR Stem-Loop Driven Prion Protein mRNA Translation in H4-C Neuroglioblastoma Cells. [Related pubchem assays: 1829 (Project Summary), 1814 (Primary HTS)]; assay type: functional
[14] = Luminescence Cell-Based Dose Confirmation to Identify Activators of 5'UTR Stem-Loop Driven Alpha-Synuclein mRNA Translation in H4 Neuroglioblastoma Cells. [Related pubchem assays: 1829 (Project Summary), 1814 (Primary HTS)]; assay type: functional
[15] = molecular target: ATP-dependent molecular chaperone HSP82 (Candida albicans (strain WO-1) (Yeast), UniProt C4YTQ8); experiment: loss of DOC-induced GRE-beta-galactosidase reporter signal, dose response, Hsp90 inhibitor project, S. cerevisiae, luminescence (AID 2400); assay type: functional, cell-based;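 note: beta-galactosidase luminescence from glucocorticoid response element reporter as proxy for Hsp90 function; inhibitor potency where signal loss means Hsp90 inhibition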
[16] = Luminescence Cell-Based Dose Response to Identify Activators of Luciferase Translation or Activity in H4-C Neuroglioblastoma Cells. [Related pubchem assays: 1829 (Project Summary), 1814 (Primary HTS)]; assay type: functional
[17] = C. albicans growth with fluconazole, confirmation, fluorescence, retest (AID 2467); assay type: functional, cell-based
[18] = Luminescence Cell-Based Dose Response HTS to Identify Activators of Luciferase Translation or Activity in H4 […] Cells. [Related pubchem assays: 1829 (Project Summary), 1814 (Primary HTS)]; assay type: functional
H4 = experiment: Luminescence Cell-Based Dose Response HTS to Identify Activators of 5'UTR Stem-Loop Driven Prion Protein mRNA Translation in H4 Neuroglioblastoma Cells. [Related pubchem assays: 1829 (Project Summary), 1814 (Primary HTS)]; assay type: functional; settings: Homo sapiens
Beta-lactamase [19] = molecular target: T4, Beta-lactamase (Pseudomonas aeruginosa, UniProt Q79MP6); experiment: […] counterscreen for selective VIM-2 inhibitors: dose response biochemical high throughput screening assay to identify inhibitors of IMP-1 metallo-beta-lactamase.
Leucine aminopeptidase = molecular target: T5, Leucine aminopeptidase (Plasmodium falciparum 3D7, UniProt Q8IL11); experiment: P. falciparum M17LAP inhibitors, primary screen, biochemical, fluorogenic H-Leu-NHMec substrate, 1536-well (AID 1619); assay type: functional
T5 sequence (Q8IL11 whole entry): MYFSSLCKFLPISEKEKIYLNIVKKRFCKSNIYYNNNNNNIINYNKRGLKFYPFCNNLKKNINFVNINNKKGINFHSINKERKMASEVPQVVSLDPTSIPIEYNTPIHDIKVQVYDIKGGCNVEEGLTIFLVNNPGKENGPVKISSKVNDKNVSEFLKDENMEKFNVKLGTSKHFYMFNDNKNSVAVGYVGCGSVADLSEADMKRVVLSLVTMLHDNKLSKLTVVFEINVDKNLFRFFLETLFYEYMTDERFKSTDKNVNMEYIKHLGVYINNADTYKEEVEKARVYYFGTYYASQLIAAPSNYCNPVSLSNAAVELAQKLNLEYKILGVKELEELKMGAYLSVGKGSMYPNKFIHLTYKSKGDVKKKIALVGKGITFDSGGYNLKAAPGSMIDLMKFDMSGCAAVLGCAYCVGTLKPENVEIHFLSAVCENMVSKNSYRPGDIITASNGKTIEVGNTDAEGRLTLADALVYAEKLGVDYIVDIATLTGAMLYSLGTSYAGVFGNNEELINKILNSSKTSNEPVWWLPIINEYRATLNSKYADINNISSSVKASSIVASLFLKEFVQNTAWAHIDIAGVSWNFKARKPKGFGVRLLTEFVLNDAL

[20] = molecular target: T6, Probable nicotinate-nucleotide adenylyltransferase (Staphylococcus aureus (strain N315), UniProt P65502); assay type: functional, Staphylococcus aureus subsp. aureus N315;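 for IC50 Mean: confirmatory dose-response retesting of NadD inhibitor hits first found in an ultra-high-throughput screen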
Beta Lactamase [21] = molecular target: T7, Beta Lactamase (Pseudomonas aeruginosa, UniProt Q932Y6); experiment: VIM-2 metallo-beta-lactamase inhibitor potency, dose response, biochemical, epi-absorbance readout, selective inhibitors (AID 1919)
[22] = molecular target: T6, Probable nicotinate-nucleotide adenylyltransferase; assay type: functional, Staphylococcus aureus subsp. aureus N315; settings: read-out: IC50_Mean
Beta Lactamase [23] = molecular target: T7, Beta Lactamase; experiment: VIM-2 inhibitor FRET-based artefact check, dose response, artefact control for selective VIM-2 inhibitor project, biochemical, FRET readout, CCF2 substrate (AID 1926)
Beta-lactamase [24] = molecular target: Beta-lactamase (Salmonella choleraesuis (strain SC-B67), UniProt Q5J463); experiment: Epi-absorbance-based counterscreen for selective VIM-2 inhibitors: dose response biochemical high throughput screening assay to identify inhibitors of TEM-1 serine-beta-lactamase.
Beta-lactamase [25] = molecular target: T4, Beta-lactamase; experiment: IMP-1 metallo-beta-lactamase inhibitors, dose response, selectivity assay for VIM-2 inhibitor project, biochemical, epi-absorbance (AID 1920)
[26] = molecular target: Arf-GAP with SH3 domain, ANK repeat and PH domain-containing protein 1 (Homo sapiens, UniProt Q9ULH1); assay type: functional;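 note: biochemical fluorescence polarization dose–response screen measuring inhibition of ASAP1; ASAP1 GAP domain stimulating GTP hydrolysis by truncated human ARF1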
[27] = molecular target: T8, Small ubiquitin-related modifier 1 (Homo sapiens, UniProt P63165); experiment: inhibitors of SUMO1 peptide binding, dose response, biochemical, fluorescence polarization, uHTS hits (AID 624382); assay type: functional; settings: read-out: IC50_Mean
[28] = molecular target: T8, Small ubiquitin-related modifier 1; experiment: inhibitors of SUMO1 partner interactions, dose response, biochemical, FRET (AID 624383); assay type: functional; settings: read-out: IC50_Mean
[29] = molecular target: T9, Carboxy-terminal domain RNA polymerase II polypeptide A small phosphatase 1 (Homo sapiens, UniProt Q9GZU7); experiment: inhibitors of CTDSP1, concentration-response testing, biochemical assay, absorbance-based, actives from ultra-high-throughput screening (AID 540297); assay type: functional
T9 sequence (Q9GZU7 whole entry): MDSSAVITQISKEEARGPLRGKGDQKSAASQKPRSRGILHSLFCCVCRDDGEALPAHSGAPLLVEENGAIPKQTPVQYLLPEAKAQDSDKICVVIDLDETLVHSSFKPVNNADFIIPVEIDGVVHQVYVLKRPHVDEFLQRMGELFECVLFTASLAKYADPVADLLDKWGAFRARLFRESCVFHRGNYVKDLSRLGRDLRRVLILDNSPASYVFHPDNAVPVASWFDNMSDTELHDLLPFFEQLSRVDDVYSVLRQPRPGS

T8 sequence (P63165 whole entry): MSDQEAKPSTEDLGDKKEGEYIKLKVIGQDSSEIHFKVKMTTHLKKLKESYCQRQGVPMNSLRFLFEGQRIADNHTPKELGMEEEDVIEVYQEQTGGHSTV
T1 sequence (P08183 whole entry): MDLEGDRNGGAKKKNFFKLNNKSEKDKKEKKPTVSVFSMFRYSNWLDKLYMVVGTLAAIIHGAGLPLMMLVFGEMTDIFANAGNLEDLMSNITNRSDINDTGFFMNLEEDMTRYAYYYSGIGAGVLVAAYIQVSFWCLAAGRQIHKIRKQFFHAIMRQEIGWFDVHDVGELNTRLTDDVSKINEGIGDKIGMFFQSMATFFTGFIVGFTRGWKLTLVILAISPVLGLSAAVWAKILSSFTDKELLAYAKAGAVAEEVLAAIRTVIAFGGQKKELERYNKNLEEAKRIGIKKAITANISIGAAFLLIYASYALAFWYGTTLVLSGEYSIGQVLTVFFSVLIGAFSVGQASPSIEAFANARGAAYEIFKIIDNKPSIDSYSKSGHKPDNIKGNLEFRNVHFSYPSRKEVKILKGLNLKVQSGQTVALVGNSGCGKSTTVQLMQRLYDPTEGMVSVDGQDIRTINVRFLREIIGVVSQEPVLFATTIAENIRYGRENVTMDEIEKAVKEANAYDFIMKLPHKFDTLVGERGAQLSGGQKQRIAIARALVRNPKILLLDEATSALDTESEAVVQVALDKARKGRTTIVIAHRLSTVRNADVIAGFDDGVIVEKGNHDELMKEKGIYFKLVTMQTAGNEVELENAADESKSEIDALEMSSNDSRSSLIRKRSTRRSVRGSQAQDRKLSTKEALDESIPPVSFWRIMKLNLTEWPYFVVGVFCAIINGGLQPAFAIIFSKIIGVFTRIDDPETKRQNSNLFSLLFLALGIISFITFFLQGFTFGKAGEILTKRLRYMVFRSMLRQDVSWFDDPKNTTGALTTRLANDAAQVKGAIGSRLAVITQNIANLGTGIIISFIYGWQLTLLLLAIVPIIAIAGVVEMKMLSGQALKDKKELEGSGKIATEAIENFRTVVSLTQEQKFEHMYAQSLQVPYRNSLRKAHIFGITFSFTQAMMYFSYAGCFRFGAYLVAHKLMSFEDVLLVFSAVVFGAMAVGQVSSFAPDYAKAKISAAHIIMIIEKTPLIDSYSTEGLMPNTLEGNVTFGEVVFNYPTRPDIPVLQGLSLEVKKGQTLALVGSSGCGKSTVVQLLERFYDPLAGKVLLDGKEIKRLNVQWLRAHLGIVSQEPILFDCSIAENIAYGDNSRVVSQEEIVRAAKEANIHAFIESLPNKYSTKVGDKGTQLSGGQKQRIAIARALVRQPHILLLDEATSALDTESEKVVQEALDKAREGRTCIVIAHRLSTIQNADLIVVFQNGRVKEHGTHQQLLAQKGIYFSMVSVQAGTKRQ
T6 sequence (P65502 whole entry): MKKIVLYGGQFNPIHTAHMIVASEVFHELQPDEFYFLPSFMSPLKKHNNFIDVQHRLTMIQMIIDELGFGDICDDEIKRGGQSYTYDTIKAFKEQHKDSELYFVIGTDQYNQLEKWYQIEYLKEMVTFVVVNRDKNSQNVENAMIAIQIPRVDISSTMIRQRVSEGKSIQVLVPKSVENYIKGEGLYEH
T7 sequence (Q932Y6 whole entry): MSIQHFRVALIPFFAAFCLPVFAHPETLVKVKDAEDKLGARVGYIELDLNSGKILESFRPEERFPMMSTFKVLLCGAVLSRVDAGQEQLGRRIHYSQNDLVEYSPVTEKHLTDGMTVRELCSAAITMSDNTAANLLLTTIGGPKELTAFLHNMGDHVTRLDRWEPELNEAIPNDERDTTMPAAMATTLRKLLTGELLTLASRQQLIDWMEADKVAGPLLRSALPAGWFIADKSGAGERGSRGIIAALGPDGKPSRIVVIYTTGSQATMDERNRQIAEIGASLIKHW
T3 sequence (P54149 whole entry): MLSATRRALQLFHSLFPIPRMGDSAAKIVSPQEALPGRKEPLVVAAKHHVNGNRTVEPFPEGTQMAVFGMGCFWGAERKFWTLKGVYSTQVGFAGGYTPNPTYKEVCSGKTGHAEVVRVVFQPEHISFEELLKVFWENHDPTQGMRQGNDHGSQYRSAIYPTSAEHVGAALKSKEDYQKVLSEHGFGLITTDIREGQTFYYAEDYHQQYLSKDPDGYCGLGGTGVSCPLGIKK
T4 sequence (Q79MP6 whole entry): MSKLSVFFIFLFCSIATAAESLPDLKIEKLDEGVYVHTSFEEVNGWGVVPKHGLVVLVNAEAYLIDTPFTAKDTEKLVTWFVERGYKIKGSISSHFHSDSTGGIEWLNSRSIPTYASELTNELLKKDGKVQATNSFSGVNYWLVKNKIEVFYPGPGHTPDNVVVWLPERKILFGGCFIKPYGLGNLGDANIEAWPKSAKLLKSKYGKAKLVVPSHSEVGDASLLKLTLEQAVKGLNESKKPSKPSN
Histone-lysine N-methyltransferase NSD2, sequence (O96028 whole entry): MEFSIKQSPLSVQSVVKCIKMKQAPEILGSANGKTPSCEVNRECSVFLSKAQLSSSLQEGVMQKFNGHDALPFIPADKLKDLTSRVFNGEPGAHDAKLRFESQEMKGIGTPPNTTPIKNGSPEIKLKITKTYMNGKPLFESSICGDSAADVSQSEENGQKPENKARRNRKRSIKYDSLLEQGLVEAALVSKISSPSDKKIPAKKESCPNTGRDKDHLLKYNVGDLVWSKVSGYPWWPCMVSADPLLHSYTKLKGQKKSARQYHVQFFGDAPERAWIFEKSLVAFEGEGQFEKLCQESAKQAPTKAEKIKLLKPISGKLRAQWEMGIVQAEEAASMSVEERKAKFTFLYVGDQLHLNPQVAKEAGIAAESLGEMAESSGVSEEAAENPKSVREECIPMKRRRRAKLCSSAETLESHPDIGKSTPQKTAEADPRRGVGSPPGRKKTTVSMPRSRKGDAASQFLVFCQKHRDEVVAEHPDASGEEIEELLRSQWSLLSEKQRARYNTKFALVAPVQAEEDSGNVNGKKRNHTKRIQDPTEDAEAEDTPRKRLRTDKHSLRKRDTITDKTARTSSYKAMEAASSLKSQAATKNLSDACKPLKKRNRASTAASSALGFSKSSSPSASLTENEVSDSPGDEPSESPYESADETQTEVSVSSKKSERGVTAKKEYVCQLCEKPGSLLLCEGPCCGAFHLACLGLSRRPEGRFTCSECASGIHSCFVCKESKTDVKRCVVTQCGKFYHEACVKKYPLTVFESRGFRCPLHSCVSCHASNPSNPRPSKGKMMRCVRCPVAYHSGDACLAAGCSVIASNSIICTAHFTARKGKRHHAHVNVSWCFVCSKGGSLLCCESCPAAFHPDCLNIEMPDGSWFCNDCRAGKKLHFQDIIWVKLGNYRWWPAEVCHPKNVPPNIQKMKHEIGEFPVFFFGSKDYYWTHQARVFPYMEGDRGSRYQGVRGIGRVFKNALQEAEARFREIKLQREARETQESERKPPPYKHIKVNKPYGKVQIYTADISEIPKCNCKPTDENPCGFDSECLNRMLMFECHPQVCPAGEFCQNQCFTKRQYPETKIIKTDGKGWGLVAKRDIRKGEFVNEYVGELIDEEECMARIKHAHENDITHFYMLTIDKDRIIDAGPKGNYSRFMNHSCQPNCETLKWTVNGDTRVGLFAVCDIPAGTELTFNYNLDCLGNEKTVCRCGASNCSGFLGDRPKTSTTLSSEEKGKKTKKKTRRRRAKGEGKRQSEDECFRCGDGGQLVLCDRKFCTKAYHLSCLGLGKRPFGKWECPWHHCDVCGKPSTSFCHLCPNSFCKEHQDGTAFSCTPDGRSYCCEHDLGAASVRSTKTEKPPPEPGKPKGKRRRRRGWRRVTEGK
Arf-GAP with SH3 domain, ANK repeat and PH domain-containing protein 1, sequence (Q9ULH1 whole entry, the tested form may be a part): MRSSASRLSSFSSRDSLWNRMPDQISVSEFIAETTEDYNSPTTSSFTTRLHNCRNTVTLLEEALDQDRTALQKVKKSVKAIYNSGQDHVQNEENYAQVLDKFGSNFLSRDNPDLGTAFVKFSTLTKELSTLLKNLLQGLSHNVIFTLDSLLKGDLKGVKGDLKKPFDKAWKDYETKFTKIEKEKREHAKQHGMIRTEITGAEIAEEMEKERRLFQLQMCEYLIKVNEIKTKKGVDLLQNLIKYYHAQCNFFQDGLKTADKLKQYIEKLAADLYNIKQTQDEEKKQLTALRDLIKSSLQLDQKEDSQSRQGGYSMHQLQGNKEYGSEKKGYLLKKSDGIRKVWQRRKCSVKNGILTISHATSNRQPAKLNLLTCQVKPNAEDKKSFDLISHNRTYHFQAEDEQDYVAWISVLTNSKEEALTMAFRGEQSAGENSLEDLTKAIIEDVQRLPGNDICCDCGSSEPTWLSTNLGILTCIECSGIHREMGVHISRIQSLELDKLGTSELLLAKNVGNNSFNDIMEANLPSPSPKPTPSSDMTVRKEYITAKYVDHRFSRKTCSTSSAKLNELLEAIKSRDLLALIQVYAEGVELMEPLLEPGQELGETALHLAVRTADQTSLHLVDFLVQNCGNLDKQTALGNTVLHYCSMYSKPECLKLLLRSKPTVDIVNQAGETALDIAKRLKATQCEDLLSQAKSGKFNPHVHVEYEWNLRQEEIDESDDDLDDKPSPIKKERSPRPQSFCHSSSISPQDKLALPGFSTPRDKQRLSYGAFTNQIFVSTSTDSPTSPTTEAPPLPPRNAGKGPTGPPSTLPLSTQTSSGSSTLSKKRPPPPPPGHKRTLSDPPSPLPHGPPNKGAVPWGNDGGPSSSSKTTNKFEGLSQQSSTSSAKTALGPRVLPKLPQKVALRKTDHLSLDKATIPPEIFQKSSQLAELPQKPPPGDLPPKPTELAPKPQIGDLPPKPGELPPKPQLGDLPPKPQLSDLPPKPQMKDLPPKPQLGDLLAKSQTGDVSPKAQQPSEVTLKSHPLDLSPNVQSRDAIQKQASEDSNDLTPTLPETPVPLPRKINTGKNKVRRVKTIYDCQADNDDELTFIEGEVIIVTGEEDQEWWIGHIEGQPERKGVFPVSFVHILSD

## O=C(c1ccco1)N1CCN(c2c3c(nc4cc(-c5cccc(F)c5)nn24)CCCC3)CC1
[1]
  EC50: 1.79 µM (active)
[2]
  EC50: 4.41 µM (active)

## O=C(Nc1nnc(-c2ccc3c(c2)OCCO3)o1)c1ccc(Cc2ccccc2)cc1
[3]
  IC50: 7.92 µM (active)

## O=[N+]([O-])c1ccc(-[n+]2nc(-c3ccccc3)nn2-c2ccccc2)cc1
[4]
  IC50: 23.7 µM (active)
[5]
  IC50: 5.48 µM (active)
[6]
  IC50: 35.9 µM (inactive)
[7]
  EC50: > 104 µM (inactive)
[8]
  AC50: 0.654 µM (active)

## O=C(CN1C(=O)NC2(CCOc3ccccc32)C1=O)c1ccc(Cl)cc1 (stereo unspecified)
[9]
  AC50: 47.9 µM (active)

## Clc1ccc(CONc2ncnc3nonc23)c(Cl)c1
[10]
  EC50: > 180 µM (inactive)
[11]
  EC50: 22.4 µM (active)
[12]
  EC50: > 160 µM (inactive)
[13]
  EC50: 1.14 µM (active)
[14]
  EC50: > 12 µM (not active)
[15]
  EC50: 19.4 µM (active)
[16]
  EC50: 0.516 µM (active)
[17]
  EC50: 1.26 µM (active)
[18]
  EC50: < 0.1 µM (inconclusive)
H4
  EC50: 52.6 µM (active)

## O=C(O)c1cccc(NC(=S)N/N=C/c2ccccc2OCc2ccc(Br)cc2)c1
Beta-lactamase [19]
  IC50: > 59.6 µM (inactive)
Leucine aminopeptidase
  IC50: 13.3 µM (active)
[20]
  IC50: 3.73 µM (active)
Beta Lactamase [21]
  IC50: 10 µM (inactive)
[22]
  IC50: 15.4 µM (active)
Beta Lactamase [23]
  IC50: 0.885 µM (active)
Beta-lactamase [24]
  IC50: > 59.6 µM (inactive)
Beta-lactamase [25]
  IC50: > 59.6 µM (inactive)

## Clc1ccc(OCc2nn3c(-c4ccco4)nnc3s2)c(Cl)c1
[26]
  IC50: 22.8 µM (inactive)

## CC(Cc1c[nH]c2ccccc12)C(=O)NCc1ccco1 (stereo unspecified)
[27]
  IC50: > 66.6 µM (inactive)
[28]
  IC50: 12.2 µM (active)
[29]
  IC50: 19.4 µM (active)
